Assay results published in US20140024123A1, “Aqueous Solution Containing Partial Ras Polypeptide and Method for Screening Inhibitor of Ras Function” (priority 2011, published 2014).

Columns and labels:
[1] = target: T1, human H-Ras polypeptide (amino acid residues 1 to 166) binding to human c-Raf-1 (amino acid residues 51 to 130) (Homo sapiens, UniProt P01112); assay: Biochemical activity verification test: inhibition of Ras-Raf binding (GST-Raf pull-down of GTPγ[35S]-labeled Ras, scintillation counting); settings: compound at various concentrations in 10% DMSO; FIG. 4
T1 construct: a human H-Ras polypeptide (amino acid residues 1 to 166) was used as Ras; GST (N, cleaved yes); made in house; host or cells: Escherichia coli
Source text: In this experimental example, a human H-Ras polypeptide (amino acid residues 1 to 166) was used as Ras, and a GTP analog (GTPγS (Roche Diagnostics)) was used as GTP. Further, human c-Raf-1 (amino acid residues 51 to 130) was used as Raf, a target protein of Ras.
A fused protein of Raf, a target protein of Ras, and glutathione S-transferase (GST) was expressed in Escherichia coli using a vector for GST-fused protein expression (pGEX-6P-1 vector (GE Healthcare)). The expressed GST-Raf-fused protein was immobilized onto an affinity carrier for purification (glutathione Sepharose 4B: resin (GE Healthcare)).
GTPγ[^35S] (Perkin Elmer), one of the GTP analogs, was added to Ras from which a GST tag was cleaved with a protease for GST-fused protein cleavage (PreScission protease (GE Healthcare)) to produce radiolabeled Ras.
The resin in the reaction liquid was washed, and then a complex of the GST-Raf-fused protein and the radiolabeled Ras was eluted by adding glutathione. A radioactivity of the eluate was subjected to scintillation counting, to thereby measure a binding activity of Ras to Raf, and inhibitory activities on Ras-Raf binding with various compounds were evaluated.

[2] = system: culture cell lines having a mutation in an active form of any one of H-Ras, N-Ras, and K-Ras; assay: Cytological activity verification test: anchorage-independent cell growth (soft agar colony formation); assay type: cell-based; settings: 0.6% agarose, 37° C., 2 weeks, colonies with diameter of 50 μm or more, relative to compound-free control (100%); FIG. 5
Method: The number of appeared colonies each having a size with a diameter of 50 μm or more was measured. For a medium in which each of the culture cell lines was suspended in a system free of each of the compounds, the number of colonies was similarly measured and used as a control (100%). Each of the compounds was evaluated for its inhibitory activity on colony formation (inhibitory activity on anchorage-independent cell growth) by calculating inhibition ratio for colony formation of the compound administration group relative to the control.

T1 sequence (P01112 1-166): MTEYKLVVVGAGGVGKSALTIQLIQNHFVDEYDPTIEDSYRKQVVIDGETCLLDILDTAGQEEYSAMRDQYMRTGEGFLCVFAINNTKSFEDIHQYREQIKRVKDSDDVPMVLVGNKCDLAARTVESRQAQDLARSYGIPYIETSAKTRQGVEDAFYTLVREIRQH

Structure (SMILES) | inhibitory activity on Ras-Raf binding [1] | inhibitory activity on colony formation (anchorage-independent cell growth) [2]
Cc1ccc(NC(=S)NNc2c([N+](=O)[O-])cc(C(F)(F)F)cc2[N+](=O)[O-])cc1Cl [Compound (II)] | found to interact with Ras | found to have a colony formation inhibition effect on each cell
O=[N+]([O-])c1ccc(NNC(=S)Nc2ccc(F)cc2)c([N+](=O)[O-])c1 [Compound (III)] | found to interact with Ras | found to have a colony formation inhibition effect on each cell
O=[N+]([O-])c1cc(C(F)(F)F)cc([N+](=O)[O-])c1NNC(=S)Nc1ccc(F)cc1 [Compound (IV)] | found to interact with Ras | found to have a colony formation inhibition effect on each cell
